In paper PMC9841531, “Indole Derivatives as New Structural Class of Potent and Antiproliferative Inhibitors of Monocarboxylate Transporter 1 (MCT1; SLC16A1)” (Journal of Medicinal Chemistry, 2022):

Tests used:
A-549 cells = assay: 3-BP toxicity against A-549 cells (MTT); assay type: cell-based
Method: (§1) The inhibitory activity of indole derivatives against MCT1 was determined by applying a functional 3-bromopyruvate (3-BP) cell viability assay, as described in the literature[20],[39] with minor modifications. In short, MCT1-expressing A-549 cells[14],[15] were exposed to the MCT1 substrate 3-BP, which becomes influxed by MCT1. 3-BP is toxic, leading to decreased cell viability. Functional inhibition of MCT1 results in reduced intracellular 3-BP levels and, thus, enhanced cell viability compared to no inhibition. […] Table 1 provides the half-maximal inhibition concentration (IC50) values of compounds 17–32.
(§2) A functional 3-BP cytotoxicity assay was conducted as described in the literature[20],[39] with minor modifications. Dilution series of compounds 17–32 between 1 nM and 1 μM were prepared in DPBS (Cell Clone, Genetix Biotech Asia, New Delhi India), and 10 μL of each concentration was pipetted into a colorless flat-bottom 96-well microplate (SPL Life Sciences, Gyeonggi-do, Republic of Korea). One hundred and eighty microliters of a cell suspension (5000 cells/well) of A-549 cells was added, and subsequently, 10 μL of 3-BP was added at a concentration of 1 mM (final concentration per well: 50 μM). The plate was kept for 72 h at 37 °C under a 5% CO2-humidified atmosphere. Cell viability was determined as described before[43] by adding 20 μL of a 5 mg/mL solution of MTT to each well and further incubation for 1 h. Eventually, the supernatant was removed and 100 μL of DMSO was added to each well. The absorbance was spectrophotometrically determined at 570 nm using a SpectraMax iD3 multi-mode microplate reader (Molecular Devices, San Jose, CA) with a background correction (690 nm). The determined absorbance values were correlated to the logarithmic concentrations of compounds 17–32, and IC50 values were calculated applying nonlinear regression using GraphPad Prism (version 8.4.0., San Diego, CA).

ABCB1 = ABCB1 (Homo sapiens, UniProt P08183); assay: calcein AM assay, ABCB1-expressing A2780/ADR cells; conditions: screening at 10 μM, inhibitor if 20% (+SEM) reached
Text: (§5) To provide a detailed picture of the pharmacological profile of the indole derivatives, we investigated their modulatory nature on the most prominent ABC transporters ABCB1 (P-glycoprotein, P-gp), ABCC1, (multidrug resistance-associated protein 1, MRP1), and ABCG2 (breast cancer resistance protein, BCRP). Here, we conducted calcein AM (ABCB1),[2],[52]−[59] daunorubicin (ABCC1),[52],[58]−[60] and pheophorbide A (ABCG2)[2],[52]−[60] assays using ABCB1-expressing A2780/ADR, ABCC1-expressing H69AR, and ABCG2-expressing MDCK II BCRP cells, respectively.
(§6) The calcein AM (ABCB1),[2],[52]−[59] daunorubicin (ABCB1[52],[60] and ABCC1[52],[58]−[60]), and pheophorbide A (ABCG2)[2],[52]−[60] assays were conducted as reported earlier. […] The data was processed using GraphPad Prism version 8.4.0, and IC50 values were determined, applying three- or four-parameter logistic equations, whatever was statistically preferred.

MCF-7 cancer cells = assay: MTT-based cell viability assay, MCF-7; conditions: Homo sapiens, MCF7, 72 h, read-out: MCF-7 cancer cell toxicity GI50 ± SEM
Text: (§3) MCT1-expressing cells have an extraordinary energy demand and rely on pyruvate metabolism, through either lactate conversion or pyruvate consumption. Inhibition of MCT1 blocks lactate and pyruvate influx into cancer cells, which prevents their processing in the TCA cycle. Over time, the viability of cells exposed to an MCT1 inhibitor is impaired due to pyruvate deprivation, which is compensated by upregulating glucose metabolism—leading to an overconsumption of glucose. To confirm the antiproliferative nature of the indole derivatives, we investigated the compounds toward the MCT1-expressing cell lines A-549[14],[15] and MCF-7.[16] Cancer cell viability was assessed via a 3-(4,5-dimethylthiazol-2-yl)-2,5-diphenyltetrazolium bromide (MTT) assay, as reported earlier.[43]
(§4) To determine the growth inhibitory potential of compounds 17–32, […] of each compound either at concentrations between 1 and 100 μM (A-549 or MCF-7) or at 10 and 50 μM (NIH/3T3) was pipetted into colorless flat-bottom 96-well microplates. Thereafter, 180 μL of a cell suspension (5000 cells/well) of either A-549, MCF-7, or NIH/3T3 cells was added and subsequently kept for 72 h at 37 °C under a 5% CO2-humidified atmosphere. The cell viability as well as the GI50 values were determined as described above.[43]

A-549 cancer cells = assay: MTT-based cell viability assay, A-549; conditions: Homo sapiens, A549, 72 h, read-out: A-549 cancer cell toxicity GI50 ± SEM
Text: as §3, §4

MCT1 = biological target: T1, MCT1 (Homo sapiens, UniProt P53985); assay: functional 3-BP cell viability assay (MCT1 transport inhibition); assay type: cell-based; conditions: MCT1-expressing A-549 cells, 50 μM 3-BP, 72 h; read-out: MCT1 transport inhibition IC50 ± SEM
T1 construct: MCT1-expressing A-549 cells[14],[15] were exposed to the MCT1 substrate 3-BP, which becomes influxed by MCT1; endogenous in cells; host or cells: A-549 lung cancer cells (from NCCS, Pune)
T1 sequence (P53985 1-500): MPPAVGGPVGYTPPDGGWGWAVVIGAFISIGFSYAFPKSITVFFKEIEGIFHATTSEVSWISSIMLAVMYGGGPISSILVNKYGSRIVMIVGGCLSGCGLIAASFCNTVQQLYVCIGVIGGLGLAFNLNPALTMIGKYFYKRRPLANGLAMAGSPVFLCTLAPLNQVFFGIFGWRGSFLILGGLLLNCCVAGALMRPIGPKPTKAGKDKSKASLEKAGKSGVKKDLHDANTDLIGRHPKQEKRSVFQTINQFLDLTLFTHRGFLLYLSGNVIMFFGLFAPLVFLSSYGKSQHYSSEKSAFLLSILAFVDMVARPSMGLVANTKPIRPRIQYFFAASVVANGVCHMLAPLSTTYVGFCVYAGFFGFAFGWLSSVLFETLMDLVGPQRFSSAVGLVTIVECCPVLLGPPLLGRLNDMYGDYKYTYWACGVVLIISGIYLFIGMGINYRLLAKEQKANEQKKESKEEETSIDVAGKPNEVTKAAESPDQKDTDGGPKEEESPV
T1 sequence (P35613 140-385 partner limits assumed): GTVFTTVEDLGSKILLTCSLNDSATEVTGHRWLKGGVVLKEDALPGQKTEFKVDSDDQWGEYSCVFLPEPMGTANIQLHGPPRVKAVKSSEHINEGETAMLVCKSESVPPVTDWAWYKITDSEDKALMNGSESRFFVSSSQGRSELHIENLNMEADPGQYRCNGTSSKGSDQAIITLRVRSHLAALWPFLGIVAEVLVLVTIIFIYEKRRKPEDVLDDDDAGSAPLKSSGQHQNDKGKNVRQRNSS
Method: as §1, §2

ABCC1 = ABCC1 (Homo sapiens, UniProt P33527); assay: daunorubicin assay, ABCC1-expressing H69AR cells; conditions: screening at 10 μM, inhibitor if 20% (+SEM) reached
Chain of ABCC1 (P33527 whole entry): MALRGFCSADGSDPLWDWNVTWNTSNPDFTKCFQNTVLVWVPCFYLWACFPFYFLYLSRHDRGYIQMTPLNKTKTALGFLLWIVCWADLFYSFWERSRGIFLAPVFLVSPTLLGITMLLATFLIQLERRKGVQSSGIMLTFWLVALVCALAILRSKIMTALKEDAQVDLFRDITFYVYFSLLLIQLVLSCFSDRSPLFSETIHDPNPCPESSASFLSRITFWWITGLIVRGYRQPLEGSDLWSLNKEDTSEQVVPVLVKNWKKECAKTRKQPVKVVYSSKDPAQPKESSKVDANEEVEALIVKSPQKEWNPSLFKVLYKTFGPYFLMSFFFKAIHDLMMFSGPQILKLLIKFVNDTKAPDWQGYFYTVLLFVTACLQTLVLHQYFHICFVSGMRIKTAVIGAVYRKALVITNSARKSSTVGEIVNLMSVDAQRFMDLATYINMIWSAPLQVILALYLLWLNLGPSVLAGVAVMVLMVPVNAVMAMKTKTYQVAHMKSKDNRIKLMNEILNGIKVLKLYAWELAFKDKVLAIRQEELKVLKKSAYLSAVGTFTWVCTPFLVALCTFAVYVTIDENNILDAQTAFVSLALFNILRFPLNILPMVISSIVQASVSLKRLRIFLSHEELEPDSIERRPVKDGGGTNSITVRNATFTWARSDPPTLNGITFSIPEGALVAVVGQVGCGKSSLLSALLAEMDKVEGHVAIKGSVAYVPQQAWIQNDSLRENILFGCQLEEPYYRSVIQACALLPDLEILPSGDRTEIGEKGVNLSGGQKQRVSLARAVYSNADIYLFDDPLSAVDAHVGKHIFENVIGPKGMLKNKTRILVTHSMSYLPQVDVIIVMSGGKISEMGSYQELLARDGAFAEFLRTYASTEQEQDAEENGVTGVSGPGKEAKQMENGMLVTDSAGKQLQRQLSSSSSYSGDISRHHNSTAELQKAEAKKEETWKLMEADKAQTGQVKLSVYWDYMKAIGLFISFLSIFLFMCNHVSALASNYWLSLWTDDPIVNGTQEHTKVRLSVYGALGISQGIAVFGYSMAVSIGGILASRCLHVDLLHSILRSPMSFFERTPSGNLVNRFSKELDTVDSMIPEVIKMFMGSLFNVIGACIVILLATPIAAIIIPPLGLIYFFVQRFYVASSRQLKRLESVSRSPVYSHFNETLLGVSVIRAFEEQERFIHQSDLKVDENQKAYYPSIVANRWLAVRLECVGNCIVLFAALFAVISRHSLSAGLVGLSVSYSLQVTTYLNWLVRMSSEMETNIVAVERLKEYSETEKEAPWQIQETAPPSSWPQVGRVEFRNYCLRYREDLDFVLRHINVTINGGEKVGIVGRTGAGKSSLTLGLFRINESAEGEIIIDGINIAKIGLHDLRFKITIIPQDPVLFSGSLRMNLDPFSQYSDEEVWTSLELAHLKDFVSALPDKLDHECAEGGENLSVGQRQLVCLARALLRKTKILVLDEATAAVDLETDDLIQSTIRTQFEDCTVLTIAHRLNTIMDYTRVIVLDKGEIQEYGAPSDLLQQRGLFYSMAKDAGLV
Text: as §5, §6

Chain of ABCB1 (P08183 whole entry): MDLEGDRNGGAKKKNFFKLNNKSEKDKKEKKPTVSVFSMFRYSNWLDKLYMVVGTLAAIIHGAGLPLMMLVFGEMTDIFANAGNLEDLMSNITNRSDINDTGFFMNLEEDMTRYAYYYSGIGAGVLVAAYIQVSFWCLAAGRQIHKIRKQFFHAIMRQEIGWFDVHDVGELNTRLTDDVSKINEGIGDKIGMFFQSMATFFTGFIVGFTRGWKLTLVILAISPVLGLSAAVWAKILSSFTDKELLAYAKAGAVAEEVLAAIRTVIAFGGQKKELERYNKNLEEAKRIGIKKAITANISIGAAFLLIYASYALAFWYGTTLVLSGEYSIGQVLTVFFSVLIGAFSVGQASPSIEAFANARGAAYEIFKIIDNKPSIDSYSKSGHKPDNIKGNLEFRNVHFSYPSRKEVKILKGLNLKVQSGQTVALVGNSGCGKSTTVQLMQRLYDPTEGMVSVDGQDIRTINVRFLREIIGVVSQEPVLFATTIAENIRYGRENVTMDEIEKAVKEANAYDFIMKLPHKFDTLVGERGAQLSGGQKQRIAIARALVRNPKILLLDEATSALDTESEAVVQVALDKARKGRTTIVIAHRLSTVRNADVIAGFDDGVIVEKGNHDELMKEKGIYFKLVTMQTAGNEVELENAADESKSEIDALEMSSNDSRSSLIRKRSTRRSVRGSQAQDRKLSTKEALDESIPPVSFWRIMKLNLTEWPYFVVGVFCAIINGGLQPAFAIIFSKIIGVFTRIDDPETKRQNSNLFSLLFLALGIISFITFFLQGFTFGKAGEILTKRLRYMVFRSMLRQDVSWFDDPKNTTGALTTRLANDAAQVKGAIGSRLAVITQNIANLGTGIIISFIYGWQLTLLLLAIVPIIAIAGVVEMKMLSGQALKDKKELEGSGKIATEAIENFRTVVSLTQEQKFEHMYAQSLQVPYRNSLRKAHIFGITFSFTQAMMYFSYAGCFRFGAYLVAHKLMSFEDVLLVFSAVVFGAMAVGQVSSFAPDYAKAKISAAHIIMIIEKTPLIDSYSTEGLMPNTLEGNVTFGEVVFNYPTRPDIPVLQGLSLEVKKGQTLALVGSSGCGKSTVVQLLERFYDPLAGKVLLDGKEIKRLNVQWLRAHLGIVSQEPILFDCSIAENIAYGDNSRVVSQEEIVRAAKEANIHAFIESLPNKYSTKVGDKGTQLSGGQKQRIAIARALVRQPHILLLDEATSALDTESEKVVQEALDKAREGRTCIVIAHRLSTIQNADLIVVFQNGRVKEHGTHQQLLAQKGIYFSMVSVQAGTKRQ

Row | SMILES | GI90 of 3-BP (A-549 cells; A-549 cells) [µM] | GI50 (A-549 cells; Homo sapiens, A549, read-out: half-maximal growth inhibition (GI50) of 3-BP, A-549 cells) [µM] | inhibition at 50 µM (A-549 cells; Homo sapiens, A549, 50 μM 3-BP, read-out: inhibition of A-549 cell growth) [%] | ABCB1 inhibition (ABCB1) | GI50 (MCF-7 cancer cells) [µM] | GI50 (A-549 cancer cells) [µM] | IC50 (MCT1) [µM] | ABCC1 inhibition (ABCC1)
1 | O=C(O)C(=O)CBr [3-BP, 3-bromopyruvate] | 49.8 ± 0.6 | 25 ± 0.4 | ≥ 90 |  |  |  |  | 
2 | COC(=O)/C(C#N)=C/c1cn(CC(=O)Nc2ccccc2)c2ccccc12 [Compound 17, Methyl-2-cyano-3-(1-(2-oxo-2-(phenylamino)ethyl)-1H-indol-3-yl) Acrylate] |  |  |  | X (Compounds were considered as inhibitors if they reached 20% (+SEM) inhibition compared to the reference inhibitors 33–35; X = fulfilled) | 15.4 ± 0.3 | 29.2 ± 0.2 | 0.314 ± 0.047 | 
3 | COC(=O)/C(C#N)=C/c1cn(CC(=O)Nc2cccc3ccccc23)c2ccccc12 [Compound 18, Methyl-2-cyano-3-(1-(2-(naphthalen-1-ylamino)-2-oxoethyl)-1H-indol-3-yl) Acrylate] |  |  |  | X (Compounds were considered as inhibitors if they reached 20% (+SEM) inhibition compared to the reference inhibitors 33–35; X = fulfilled) | 15.4 ± 0.5 | 21.5 ± 0.4 | 0.193 ± 0.01 | 
4 | COC(=O)/C(C#N)=C/c1cn(CC(=O)Nc2ccc3ccccc3c2)c2ccccc12 [Compound 19, Methyl-2-cyano-3-(1-(2-(naphthalen-2-ylamino)-2-oxoethyl)-1H-indol-3-yl) Acrylate] |  |  |  | X (Compounds were considered as inhibitors if they reached 20% (+SEM) inhibition compared to the reference inhibitors 33–35; X = fulfilled) | 15.5 ± 1.3 | 26.9 ± 0.3 | 0.109 ± 0.003 | 
5 | COC(=O)/C(C#N)=C/c1cn(CC(=O)Nc2ccccc2C)c2ccccc12 [Compound 20, Methyl-2-cyano-3-(1-(2-oxo-2-(o-tolylamino)ethyl)-1H-indol-3-yl) Acrylate] |  |  |  | X (Compounds were considered as inhibitors if they reached 20% (+SEM) inhibition compared to the reference inhibitors 33–35; X = fulfilled) | 15.3 | 28.3 ± 0.1 | 0.105 ± 0.006 | X (Compounds were considered as inhibitors if they reached 20% (+SEM) inhibition compared to the reference inhibitors 33–35; X = fulfilled)
6 | COC(=O)/C(C#N)=C/c1cn(CC(=O)Nc2ccc(C)cc2)c2ccccc12 [Compound 21, Methyl-2-cyano-3-(1-(2-oxo-2-(p-tolylamino)ethyl)-1H-indol-3-yl) Acrylate] |  |  |  | X (Compounds were considered as inhibitors if they reached 20% (+SEM) inhibition compared to the reference inhibitors 33–35; X = fulfilled) | 13.9 ± 0.1 | 14 ± 0.5 | 0.112 ± 0.01 | X (Compounds were considered as inhibitors if they reached 20% (+SEM) inhibition compared to the reference inhibitors 33–35; X = fulfilled)
7 | COC(=O)/C(C#N)=C/c1cn(CC(=O)Nc2ccc(F)cc2)c2ccccc12 [Compound 25, Methyl-2-cyano-3-(1-(2-((4-fluorophenyl)amino)-2-oxoethyl)-1H-indol-3-yl) Acrylate] |  |  |  | X (Compounds were considered as inhibitors if they reached 20% (+SEM) inhibition compared to the reference inhibitors 33–35; X = fulfilled) | 15.1 ± 0.3 | 22 ± 0.6 | 0.793 ± 0.138 | X (Compounds were considered as inhibitors if they reached 20% (+SEM) inhibition compared to the reference inhibitors 33–35; X = fulfilled)
8 | COC(=O)/C(C#N)=C/c1cn(CC(=O)Nc2ccc(Cl)cc2)c2ccccc12 [Compound 26, Methyl-3-(1-(2-((4-chlorophenyl)amino)-2-oxoethyl)-1H-indol-3-yl)-2-cyanoacrylate] |  |  |  | X (Compounds were considered as inhibitors if they reached 20% (+SEM) inhibition compared to the reference inhibitors 33–35; X = fulfilled) | 10.7 ± 0.4 | 21 ± 0.4 | 0.196 ± 0.005 | X (Compounds were considered as inhibitors if they reached 20% (+SEM) inhibition compared to the reference inhibitors 33–35; X = fulfilled)
9 | COC(=O)/C(C#N)=C/c1cn(CC(=O)Nc2c(Cl)cccc2Cl)c2ccccc12 [Compound 27, Methyl-2-cyano-3-(1-(2-((2,6-dichlorophenyl)amino)-2-oxoethyl)-1H-indol-3-yl) Acrylate] |  |  |  | X (Compounds were considered as inhibitors if they reached 20% (+SEM) inhibition compared to the reference inhibitors 33–35; X = fulfilled) | 17.3 ± 0.6 | 25 ± 0.5 | 0.109 ± 0.002 | X (Compounds were considered as inhibitors if they reached 20% (+SEM) inhibition compared to the reference inhibitors 33–35; X = fulfilled)
10 | COC(=O)/C(C#N)=C/c1cn(CC(=O)Nc2ccc(Br)cc2)c2ccccc12 [Compound 28, Methyl-3-(1-(2-((4-bromophenyl)amino)-2-oxoethyl)-1H-indol-3-yl)-2-cyanoacrylate] |  |  |  | X (Compounds were considered as inhibitors if they reached 20% (+SEM) inhibition compared to the reference inhibitors 33–35; X = fulfilled) | 9.99 ± 0.46 | 19.2 ± 0.2 | 0.287 ± 0.047 | 
11 | COC(=O)/C(C#N)=C/c1cn(CC(=O)Nc2ccccn2)c2ccccc12 [Compound 29, Methyl-2-cyano-3-(1-(2-oxo-2-(pyridin-2-ylamino)ethyl)-1H-indol-3-yl) Acrylate] |  |  |  |  | 4.32 ± 0.14 | 17.1 ± 0.4 | 0.198 ± 0.004 | 
12 | COC(=O)/C(C#N)=C/c1cn(CC(=O)Nc2cccnc2)c2ccccc12 [Compound 32, Methyl-2-cyano-3-(1-(2-oxo-2-(pyridin-3-ylamino)ethyl)-1H-indol-3-yl) Acrylate] |  |  |  | X (Compounds were considered as inhibitors if they reached 20% (+SEM) inhibition compared to the reference inhibitors 33–35; X = fulfilled) | 11.1 ± 0.2 | 19.2 ± 0.4 | 0.109 ± 0.003 | X (Compounds were considered as inhibitors if they reached 20% (+SEM) inhibition compared to the reference inhibitors 33–35; X = fulfilled)
